Measurements from publication PMC5956890 (Journal of medicinal chemistry, 2017).
Where a name gives a salt, the structure may show the parent alone.

Columns and labels:
hBM-MSCs [1] = test: adiponectin production during adipogenesis in hBM-MSCs; conditions: for adiponectin production during adipogenesis: compared to IDX control; for adipogenesis in hBM-MSCs: compared to control
[2] = tested on: human AR-transfected murine osteoblast precursor cell line 7F2; conditions: cited from earlier work
[3] = tested on: ANGPTL4 and PDK4 gene transcription; test: Q-RT-PCR of ANGPTL4 and PDK4 mRNA in hBM-MSCs; type: cell-based, human; conditions: 3rd day after induction of adipogenesis
PPARδ [4] = target: T1, PPARδ (Homo sapiens, UniProt Q03181); test: TR-FRET competitive binding assay PPARδ; conditions: concentration-response
T1 sequence (Q03181 1-441): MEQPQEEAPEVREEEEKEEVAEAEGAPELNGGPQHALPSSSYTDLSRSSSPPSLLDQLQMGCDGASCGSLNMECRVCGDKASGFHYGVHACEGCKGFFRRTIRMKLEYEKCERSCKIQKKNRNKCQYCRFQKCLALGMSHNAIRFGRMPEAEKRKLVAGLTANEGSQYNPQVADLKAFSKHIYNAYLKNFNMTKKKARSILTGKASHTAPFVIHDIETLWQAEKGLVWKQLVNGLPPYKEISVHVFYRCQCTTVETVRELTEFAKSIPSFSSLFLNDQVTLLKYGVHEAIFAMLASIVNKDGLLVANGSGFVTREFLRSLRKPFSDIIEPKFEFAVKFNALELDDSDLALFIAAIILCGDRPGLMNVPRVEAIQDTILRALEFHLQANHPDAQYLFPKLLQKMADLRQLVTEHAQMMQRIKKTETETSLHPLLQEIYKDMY

hBM-MSCs [5] = test: Oil Red O staining of lipid droplets in hBM-MSCs; type: cell-based, human; conditions: compared with IDX control, 7th day
PPARδ [6] = target: T2, PPARδ (Homo sapiens, UniProt Q03181); test: TR-FRET PPARδ corepressor assay; type: biochemical; conditions: SMRT-ID2 peptide
T2 sequence (Q03181 211-439 limits assumed): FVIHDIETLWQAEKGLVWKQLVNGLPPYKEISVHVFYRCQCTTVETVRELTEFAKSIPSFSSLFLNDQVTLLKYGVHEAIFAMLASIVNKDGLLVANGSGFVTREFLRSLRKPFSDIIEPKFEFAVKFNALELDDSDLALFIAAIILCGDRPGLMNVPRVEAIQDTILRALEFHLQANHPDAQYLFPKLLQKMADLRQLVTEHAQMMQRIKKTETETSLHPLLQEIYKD

PPARα = target: T3, PPARα (Homo sapiens, UniProt Q07869); test: TR-FRET competitive binding assay PPARα; conditions: up to 20 µM
T3 sequence (Q07869 200-468 limits assumed): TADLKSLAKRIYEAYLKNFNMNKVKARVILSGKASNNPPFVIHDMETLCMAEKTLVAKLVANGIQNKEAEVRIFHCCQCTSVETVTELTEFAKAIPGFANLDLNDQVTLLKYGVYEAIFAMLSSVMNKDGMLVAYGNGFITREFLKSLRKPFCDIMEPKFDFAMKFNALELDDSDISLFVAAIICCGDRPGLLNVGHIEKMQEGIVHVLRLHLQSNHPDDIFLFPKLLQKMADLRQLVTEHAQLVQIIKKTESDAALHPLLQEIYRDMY

PPARδ [7] = target: T2, PPARδ; test: TR-FRET PPARδ coactivator assay; type: biochemical; conditions: compound alone
PPARγ = target: T4, PPARγ (Homo sapiens, UniProt P37231); test: TR-FRET competitive binding assay PPARγ; conditions: concentration-response
T4 sequence (P37231 235-505 limits assumed): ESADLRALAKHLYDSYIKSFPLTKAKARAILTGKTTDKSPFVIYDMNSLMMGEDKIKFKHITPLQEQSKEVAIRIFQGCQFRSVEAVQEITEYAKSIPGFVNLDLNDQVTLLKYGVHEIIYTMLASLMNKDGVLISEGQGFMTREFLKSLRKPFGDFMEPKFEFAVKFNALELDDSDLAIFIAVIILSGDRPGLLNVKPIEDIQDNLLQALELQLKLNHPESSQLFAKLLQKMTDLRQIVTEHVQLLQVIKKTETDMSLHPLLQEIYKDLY

[8] = tested on: STZ-induced diabetic C57BL/6J mice; test: STZ-induced diabetes mouse model; type: in vivo; conditions: oral 20 mg/kg for 5 days, male C57BL/6J

CCNC(=O)[C@H]1O[C@@H](n2cnc3c(N)ncnc32)[C@H](O)[C@@H]1O [Compound 15, 5′-(N-ethylcarboxamido) adenosine]
adiponectin production during adipogenesis (hBM-MSCs [1]): no significant effect | adipogenesis in hBM-MSCs (hBM-MSCs [1]): did not significantly promote adipogenesis | increase of adipocyte differentiation [2]: 20–30%

Cc1cc(SCc2sc(-c3ccc(C(F)(F)F)cc3)nc2C)ccc1OCC(=O)O [Compound 22, 2-[2-methyl-4-[[[4-methyl-2-[4-(trifluoromethyl)phenyl]-5-thiazolyl]methyl]thio]phenoxy]acetic acid]
ANGPTL4 mRNA level [3]: significantly increased ANGPTL4 and PDK4 gene transcription | PDK4 mRNA level [3]: significantly increased ANGPTL4 and PDK4 gene transcription

Nc1ncnc2c1ncn2[C@@H]1O[C@H](CO)[C@@H](O)[C@H]1O [adenosine]
adiponectin production during adipogenesis (hBM-MSCs [1]): no significant effect

CNC(=O)[C@H]1S[C@@H](n2cnc3c(NCc4cccc(I)c4)nc(Cl)nc32)[C@H](O)[C@@H]1O [Compound 1d]
PPARδ binding activity (PPARδ [4]): most potent inhibitor among A3 AR agonists

CNC(=O)[C@@]12C[C@@H]1[C@@H](n1cnc3c(NCc4cccc(Cl)c4)nc(C#Cc4ccc(F)c(F)c4)nc31)[C@H](O)[C@@H]2O [Compound 17, (1S,2R,3S,4R,5S)-4-[6-[[(3-chlorophenyl)methyl]-amino]-2-[2-(3,4-difluorophenyl)ethynyl]-9H-purin-9-yl]-2,3-dihydroxy-N-methylbicyclo[3.1.0]hexane-1-carboxamide]
adipogenesis in hBM-MSCs (hBM-MSCs [1]): no effect on adipogenesis

Cn1c(=O)c2c(ncn2C)n(C)c1=O [caffeine]
lipid droplets in differentiated adipocytes (ORO staining) (hBM-MSCs [5]): decreased them | adipogenesis in hMSCs (hBM-MSCs [1]; 1 mM): inhibited adipogenesis

O=C(NCCS(=O)(=O)c1ccc(C(F)(F)F)cn1)c1ccc(Cl)cc1 [Compound 24, 4-chloro-N-[2-[[5-(trifluoromethyl)-2-pyridinyl]sulfonyl]ethyl]benzamide]
interaction between PPARδ and corepressor peptide (PPARδ [6]): significantly promoted the recruitment of the corepressor peptide | ANGPTL4 mRNA level [3]: did not affect ANGPTL4 and PDK4 mRNA levels | PDK4 mRNA level [3]: did not affect ANGPTL4 and PDK4 mRNA levels

COC(=O)c1sccc1S(=O)(=O)Nc1ccc(Nc2ccccc2)cc1OC [Compound 23, 3-[[[2-methoxy-4-(phenylamino)phenyl]-amino]sulfonyl]-2-thiophenecarboxylic acid methyl ester]
ANGPTL4 mRNA level [3]: did not affect ANGPTL4 and PDK4 mRNA levels | PDK4 mRNA level [3]: did not affect ANGPTL4 and PDK4 mRNA levels

CCCn1cc2c(nc(NC(=O)Nc3ccc(OC)cc3)n3nc(-c4ccco4)nc23)n1 [Compound 18, N-[2-(2-furanyl)-8-propyl-8H-pyrazolo[4,3-e][1,2,4]triazolo[1,5-c]pyrimidin-5-yl]-N′-(4-methoxyphenyl)-urea]
adipogenesis in hBM-MSCs (hBM-MSCs [1]): no effect on adipogenesis

CNC(=O)[C@H]1S[C@@H](n2cnc3c(NCc4cccc(I)c4)ncnc32)[C@H](O)[C@@H]1O [Compound 1c]
replacement of labeled PPARα ligand binding (PPARα): ≤ 50% | recruitment of labeled coactivator peptide to PPARδ (PPARδ [7]): no effect on the recruitment of the labeled coactivator peptide | PPARγ binding activity (PPARγ): very weak binding activity | interaction between PPARδ and corepressor peptide (PPARδ [6]): enhanced the interaction of PPARδ with the corepressor peptide | serum glucose levels [8]: significantly decreased serum glucose levels | serum triglyceride levels [8]: downregulated serum triglyceride levels

COc1ccc(Cl)cc1C(=O)NCCc1ccc(S(=O)(=O)NC(=O)NC2CCCCC2)cc1 [glibenclamide]
PPARγ binding activity (PPARγ): showed PPARγ binding activity

OC[C@H]1O[C@@H](n2cnc3c(NC4CCCC4)nc(Cl)nc32)[C@H](O)[C@@H]1O [Compound 14, 2-chloro-N^6-cyclopentyladenosine]
adiponectin production during adipogenesis (hBM-MSCs [1]): no significant effect | adipogenesis in hBM-MSCs (hBM-MSCs [1]): did not significantly promote adipogenesis | increase of adipocyte differentiation [2]: 20–30%

CCNC(=O)[C@H]1O[C@@H](n2cnc3c(N)nc(NCCc4ccc(CCC(=O)O)cc4)nc32)[C@H](O)[C@@H]1O [Compound 16, 2-p-(2-carboxyethyl)phenethylamino-5′-N-ethylcarboxamidoadenosine hydrochloride hydrate]
adiponectin production during adipogenesis (hBM-MSCs [1]): no significant effect
